# Laboratory results taken from the supplement of paper PMC10307832.
# How the values were obtained:
# Assay in all cases: relative viability (nuclei count vs DMSO), 5 days (fraction); higher = more cells survive
# [1] = compound: Cc1nc(NC(=O)N2CCC[C@H]2C(N)=O)sc1-c1ccnc(C(C)(C)C(F)(F)F)c1 [Alpelisib] + CCNC(=O)c1noc(-c2cc(C(C)C)c(O)cc2O)c1-c1ccc(CN2CCOCC2)cc1 [Luminespib] (partner 0.01 µM)
# Summary of the method: (§1)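 Relative viability was taken as the ratio of nuclei in treated wells to nuclei in vehicle wells. Lung cancer cell lines in 1536-well plates received compounds by pin tool one day after seeding, either one drug alone or a fixed anchor-drug dose plus five library-drug doses (not always all listed) in √10 steps. Nuclei were counted on 4× images after 5 days of treatment, and values are medians of duplicate plates.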
# [2] = compound: COc1cccc2cc(-c3nc([C@H]4CC[C@H](C(=O)O)CC4)n4ncnc(N)c34)[nH]c12 [OSI-027] + C[C@@H](Oc1cc(-c2cnn(C3CCNCC3)c2)cnc1N)c1c(Cl)ccc(F)c1Cl [Crizotinib] (partner 1 µM)
# Summary of the method: as §1
# [3] = compound: CCCS(=O)(=O)Nc1ccc(F)c(C(=O)c2c[nH]c3ncc(-c4ccc(Cl)cc4)cc23)c1F [Vemurafenib] + CC1(C)CCC(c2ccc(Cl)cc2)=C(CN2CCN(c3ccc(C(=O)NS(=O)(=O)c4ccc(N[C@H](CCN5CCOCC5)CSc5ccccc5)c(S(=O)(=O)C(F)(F)F)c4)cc3)CC2)C1 [Navitoclax] (partner 0.5 µM)
# Summary of the method: as §1
# [4] = compound: COc1cccc2cc(-c3nc([C@H]4CC[C@H](C(=O)O)CC4)n4ncnc(N)c34)[nH]c12 [OSI-027] + O=C(CCCCCCC(=O)Nc1ccccc1)NO [Vorinostat] (partner 1 µM)
# Summary of the method: as §1
Cell Line,relative viability ([1]; first compound 0.04 µM),relative viability ([1]; first compound 0.1265 µM),relative viability ([1]; first compound 0.4 µM),relative viability ([1]; first compound 1.265 µM),relative viability ([1]; first compound 4 µM),relative viability ([2]; first compound 0.01 µM),relative viability ([2]; first compound 0.03162 µM),relative viability ([2]; first compound 0.1 µM),relative viability ([2]; first compound 0.3162 µM),relative viability ([2]; first compound 1 µM),relative viability ([3]; first compound 0.03162 µM),relative viability ([3]; first compound 0.1 µM),relative viability ([3]; first compound 0.3162 µM),relative viability ([3]; first compound 1 µM),relative viability ([4]; first compound 0.01 µM),relative viability ([4]; first compound 0.03162 µM),relative viability ([4]; first compound 0.1 µM),relative viability ([4]; first compound 0.3162 µM),relative viability ([4]; first compound 1 µM)
LXF-289,0.69,0.806,0.619,0.534,0.632,0.859,0.827,0.892,0.909,0.759,0.853,0.883,0.951,1.03,0.767,0.836,0.827,0.902,0.787
LOU-NH91,0.239,0.266,0.311,0.247,0.27,0.73,0.726,0.693,0.681,0.508,0.698,0.369,–,0.759,0.858,0.913,0.69,0.712,0.479
PC-14,0.154,–,0.168,0.13,0.144,1,0.898,0.95,0.934,0.581,0.915,–,0.977,0.937,0.734,0.72,0.585,0.698,0.445
H3255,0.896,0.765,1.17,0.733,0.625,0.842,0.838,0.76,0.886,0.587,0.493,–,0.57,0.386,0.729,0.935,0.693,0.795,0.652
NCI-H2170,0.561,0.875,1.12,0.575,0.373,1.31,1.07,0.986,1.1,0.552,0.532,0.251,0.639,0.484,0.779,0.814,0.806,0.662,0.454
EKVX,0.877,0.712,0.961,0.844,0.552,0.92,0.816,1.03,0.822,0.513,0.898,–,1.03,0.847,0.661,0.618,0.649,0.561,0.4
NCI-H1734,0.19,–,0.18,0.183,0.167,0.618,0.509,0.731,0.599,0.394,0.787,0.77,0.784,0.823,0.912,0.781,0.728,0.707,0.455
CAL-12T,0.394,0.61,0.287,0.177,0.332,0.567,0.568,0.62,0.718,0.487,1.28,1.2,1.47,1.28,1.06,0.585,0.68,0.535,0.321
NCI-H2347,0.476,0.632,0.626,0.503,0.522,0.668,0.609,0.673,0.388,0.405,0.633,0.78,0.7,0.75,0.556,0.403,0.55,0.447,0.339
SK-MES-1,0.675,0.561,0.733,0.527,0.464,0.995,0.933,0.997,0.965,0.52,1.25,1.3,1.27,1.13,1.21,1.08,0.972,0.913,0.593
NCI-H3122,0.077,0.0664,0.0978,0.0788,0.0851,0.261,0.26,0.266,0.215,0.163,1.04,0.993,1.02,1.1,0.991,1.09,1.06,0.93,0.732
NCI-H23,0.225,–,0.244,0.201,0.215,0.482,0.416,0.535,0.525,0.293,0.894,0.9,0.888,0.796,0.58,0.232,0.406,0.398,0.303
NCI-H2228,0.142,0.132,0.0885,0.101,0.144,0.525,0.524,0.485,–,0.239,0.687,0.752,1.04,0.841,0.509,0.511,0.528,0.564,0.45
HCC-15,0.252,0.292,0.336,0.423,0.145,0.933,0.712,0.789,0.732,0.482,0.679,0.71,0.736,0.73,0.835,0.838,0.779,0.616,0.424
COR-L23,0.678,0.748,0.696,0.62,0.477,0.688,0.549,0.674,0.985,0.4,0.841,0.988,0.76,0.953,0.524,0.436,0.403,0.408,0.297
NCI-H2009,0.995,0.999,1.14,1.06,1.08,1.05,0.998,0.879,0.941,0.72,1.14,1.13,1.01,1.05,0.735,0.718,0.708,0.675,0.588
NCI-H1755,0.352,0.415,0.418,0.42,0.395,0.915,0.771,0.872,0.748,0.421,0.937,0.953,1.05,0.998,0.72,0.855,0.655,0.711,0.472
LCLC-97TM1,0.852,0.707,0.705,0.279,0.23,0.246,0.407,0.322,0.267,0.105,0.411,0.371,0.533,0.486,0.816,0.642,0.699,0.503,0.345
NCI-H2085,0.504,0.419,0.46,0.415,0.364,0.807,0.852,0.825,0.812,0.586,1.05,0.972,1.23,1.09,0.714,0.73,0.76,0.648,0.549
NCI-H647,0.256,0.203,0.157,0.117,0.168,1.12,1.2,1.07,0.701,0.456,1.05,0.913,–,1.23,0.656,0.468,0.385,0.363,0.36
BEN,0.341,0.101,0.474,0.332,0.159,0.921,0.545,0.612,0.34,0.393,0.0514,0.0623,0.0526,0.0536,0.557,0.55,0.511,0.428,0.297
NCI-H1944,0.644,0.739,0.706,0.456,0.275,1.18,1.18,1.1,0.918,0.596,1.06,0.846,1.05,1.04,0.571,0.543,0.575,0.431,0.378
201T,1.08,1.02,1.02,0.961,0.956,1.05,1.11,1.08,1.03,0.847,1.16,1.26,1.2,1.14,0.938,0.934,0.961,0.952,0.828
NCI-H2405,0.736,0.463,0.658,0.486,0.418,0.856,0.729,0.814,0.631,0.338,0.836,0.812,–,0.864,1.04,1.02,0.899,0.831,0.549
RERF-LC-KJ,1.32,1.16,1.36,0.917,1.03,0.884,0.938,0.861,0.805,0.484,1.05,1.04,0.977,1.29,0.647,0.685,0.595,0.529,0.426
NCI-H596,0.832,0.884,0.87,0.599,0.424,0.946,1.07,1.05,0.838,0.734,0.93,0.728,1.04,0.842,0.459,0.685,0.497,0.523,0.416
NCI-H1993,0.751,0.744,0.758,0.476,0.503,0.783,0.77,0.678,0.565,0.56,0.857,–,1.25,1.08,0.86,0.967,0.717,0.474,0.449
EPLC-272H,0.74,0.253,0.155,0.19,0.164,1.05,0.872,0.944,0.697,0.787,1.05,0.916,1.13,1.06,0.384,0.358,0.267,0.384,0.233
